Test results published in paper PMC11966747, “Next Generation Risk Assessment of Acute Neurotoxicity from Organophosphate Exposures Using the In Vitro–In Silico Derived Dietary Comparator Ratio” (Environmental Science & Technology, 2025).
Where two headings read alike, the source gives them in different places.

Assays:
[1] = biological target: T1, erythrocyte AChE (Homo sapiens, UniProt P22303); assay: Exposure Activity Ratio (EAR) and Dietary Comparator Ratio (DCR) calculation; parameters: from tissue; host or cells: human whole peripheral blood (erythrocytes), K2EDTA anticoagulant; settings: human
Description: The DCR value for an exposure scenario was calculated as the ratio of EARtest and EARcomparator (eq 1). The EARtest is scenario-specific and was defined with the IC50 of the tested organophosphate oxon for in vitro erythrocyte AChE inhibition and the PBK model-simulated CBmaxoxon at the defined exposure level (eq 2).
The DCR-based predictions were evaluated by comparing the obtained DCR results with actual knowledge of the adverse health effects reported for the respective exposure scenarios. Adverse effects cannot be ruled out for human exposure scenarios with a DCR result greater than 1, while exposure scenarios with a DCR result less than or equal to 1 are considered to raise no safety concern.[18]−[20] Once validated as an adequate predicting tool, the DCR approach was applied for evaluating the safety of exposure scenarios, for which no information on the resulting toxic outcomes was reported at the defined dose levels for humans.

[2] = QSAR-based prediction; ref Punt et al. 2022; Moerenhout et al. 2024; cited from earlier work
[3] = biological target: T1, erythrocyte AChE; settings: cited from earlier work; for reported or expected adverse health outcome: human, ref Table S2
[4] = 1714 mg/kg BW (120 g) acute oral, 13 males and 2 females, ref Moon et al. 2015

T1 sequence (P22303 32-617 isoform P22303-2 limits assumed): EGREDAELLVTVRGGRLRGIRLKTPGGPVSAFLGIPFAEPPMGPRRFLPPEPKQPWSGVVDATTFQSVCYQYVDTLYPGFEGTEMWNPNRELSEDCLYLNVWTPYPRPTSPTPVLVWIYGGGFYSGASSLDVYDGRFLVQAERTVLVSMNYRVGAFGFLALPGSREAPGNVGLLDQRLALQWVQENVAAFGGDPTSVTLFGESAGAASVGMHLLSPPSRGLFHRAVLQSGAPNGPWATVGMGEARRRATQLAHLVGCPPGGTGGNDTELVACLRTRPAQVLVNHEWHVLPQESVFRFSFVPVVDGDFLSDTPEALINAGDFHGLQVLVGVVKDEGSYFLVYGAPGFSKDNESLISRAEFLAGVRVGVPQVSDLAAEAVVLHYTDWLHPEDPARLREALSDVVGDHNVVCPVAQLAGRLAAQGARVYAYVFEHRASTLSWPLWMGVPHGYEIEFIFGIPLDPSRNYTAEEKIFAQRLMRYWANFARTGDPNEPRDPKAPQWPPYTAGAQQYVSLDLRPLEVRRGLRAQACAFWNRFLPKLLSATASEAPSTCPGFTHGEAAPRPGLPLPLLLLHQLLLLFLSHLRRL

## COP(=S)(OC)Oc1ccc([N+](=O)[O-])c(C)c1 [fenitrothion]
[1]; single oral 0.042 mg/kg BW
  calculated DCR value: 0.17
  calculated EARtest value: 6.8 × 10^–3
[1]; single oral 0.06 mg/kg BW
  calculated DCR value: 0.25
  calculated EARtest value: 9.7 × 10^–3
[1]; single oral 0.083 mg/kg BW
  calculated DCR value: 0.34
  calculated EARtest value: 0.013
[1]; single oral 0.09 mg/kg BW
  calculated DCR value: 0.37
  calculated EARtest value: 0.015
[1]; single oral 0.17 mg/kg BW
  calculated DCR value: 0.70
  calculated EARtest value: 0.028
[1]; single oral 0.18 mg/kg BW
  calculated DCR value: 0.74
  calculated EARtest value: 0.029
[1]; single oral 0.25 mg/kg BW
  calculated DCR value: 1.0
  calculated EARtest value: 0.041
[1]; single oral 0.33 mg/kg BW
  calculated DCR value: 1.4
  calculated EARtest value: 0.054
[1]; single oral 0.36 mg/kg BW
  calculated DCR value: 1.5
  calculated EARtest value: 0.059
[1]; single oral 36 mg/kg BW
  calculated DCR value: 174
  calculated EARtest value: 6.89
[1]; single oral 71 mg/kg BW
  calculated DCR value: 346
  calculated EARtest value: 13.66
[1]; single oral 143 mg/kg BW
  calculated DCR value: 610
  calculated EARtest value: 24.10
[1]; single oral 214 mg/kg BW
  calculated DCR value: 811
  calculated EARtest value: 32.03
[1]; single oral 357 mg/kg BW
  calculated DCR value: 1189
  calculated EARtest value: 46.93
[1]; single oral 429 mg/kg BW
  calculated DCR value: 1364
  calculated EARtest value: 53.86
[1]; single oral 500 mg/kg BW
  calculated DCR value: 1526
  calculated EARtest value: 60.24
[1]; single oral 536 mg/kg BW
  calculated DCR value: 1604
  calculated EARtest value: 63.31
[1]; single oral 571 mg/kg BW
  calculated DCR value: 1677
  calculated EARtest value: 66.18
[1]; single oral 1714 mg/kg BW
  calculated DCR value: 3037
  calculated EARtest value: 119.90
[1]; single oral 1786 mg/kg BW
  calculated DCR value: 3078
  calculated EARtest value: 121.49
[2]
  Oral absorption rate constant: 0.58 h⁻¹
[3]; 0.042 mg/kg BW single oral, 3 volunteers, ref Nosáľ and Hladká. 1968
  Reported erythrocyte AChE activity/inhibition: No significant
[3]; 0.06 mg/kg BW single oral, 3 male volunteers, ref Meaklim et al. 2003
  Reported concomitant effects (signs and symptoms): No significant symptoms
[3]; 0.083 mg/kg BW single oral, 9 volunteers, ref Nosáľ and Hladká. 1968
  Reported erythrocyte AChE activity/inhibition: No significant
[3]; 0.09 mg/kg BW, first dose of repeated exposure study, 8 male and 4 female volunteers, ref Meaklim et al. 2003
  Reported erythrocyte AChE activity/inhibition: No significant erythrocyte AChE
[3]; 0.17 mg/kg BW single oral, 5 volunteers, ref Nosáľ and Hladká. 1968
  Reported erythrocyte AChE activity/inhibition: No significant erythrocyte AChE
[3]; 0.18 mg/kg BW single oral, 3 male volunteers, ref Meaklim et al. 2003
  Reported concomitant effects (signs and symptoms): No significant symptoms
[3]; 0.18 mg/kg BW, first dose of repeated exposure study, 8 male and 4 female volunteers, ref Meaklim et al. 2003
  Reported erythrocyte AChE activity/inhibition: No significant erythrocyte AChE
[3]; 0.25 mg/kg BW single oral, 2 volunteers, ref Nosáľ and Hladká. 1968
  Reported erythrocyte AChE activity/inhibition: No significant erythrocyte AChE
[3]; 0.33 mg/kg BW single oral, 5 volunteers, ref Nosáľ and Hladká. 1968
  Reported erythrocyte AChE activity/inhibition: No significant erythrocyte AChE
[3]; 0.36 mg/kg BW single oral, 3 male volunteers, ref Meaklim et al. 2003
  Reported concomitant effects (signs and symptoms): No symptoms or adverse effects
[3]; 36 mg/kg BW (2.5 g) acute oral, person, ref Kojima et al. 1989
  Reported concomitant effects (signs and symptoms): Toxic symptoms occurred
[3]; 71 mg/kg BW (5 g) acute oral, person, ref Yoshida and Kuroki. 2010 (original data of Koyama et al. 2006)
  Reported concomitant effects (signs and symptoms): Toxic symptoms occurred
[3]; 143 mg/kg BW (10 g) acute oral, person, ref Yoshida and Kuroki. 2010 (original data of Koyama et al. 2006)
  Reported concomitant effects (signs and symptoms): Toxic symptoms occurred
[3]; 214 mg/kg BW (15 g) acute oral, person five, ref Yoshida and Kuroki. 2010 (original data of Koyama et al. 2006)
  Reported concomitant effects (signs and symptoms): Toxic symptoms occurred
[3]; 214 mg/kg BW (15 g) acute oral, person three, ref Yoshida and Kuroki. 2010 (original data of Koyama et al. 2006)
  Reported concomitant effects (signs and symptoms): Toxic symptoms occurred
[3]; 286 mg/kg BW (20 g) acute oral, person, ref Sakamoto et al. 1984
  Reported concomitant effects (signs and symptoms): Toxic symptoms occurred
[3]; 357 mg/kg BW (25 g) acute oral, person eleven, ref Yoshida and Kuroki. 2010 (original data of Koyama et al. 2006)
  Reported concomitant effects (signs and symptoms): Toxic symptoms occurred
[3]; 357 mg/kg BW (25 g) acute oral, person twelve, ref Yoshida and Kuroki. 2010 (original data of Koyama et al. 2006)
  Reported concomitant effects (signs and symptoms): Toxic symptoms occurred
[3]; 357 mg/kg BW (25 g) acute oral, person, ref Martinez-Chuecos et al. 1992
  Reported concomitant effects (signs and symptoms): Toxic symptoms occurred
[3]; 429 mg/kg BW (30 g) acute oral, person, ref Yoshida et al. 1987
  Reported concomitant effects (signs and symptoms): Toxic symptoms occurred
[3]; 429 mg/kg BW (30.0 ± 19.7 g) acute oral, 4 males and 6 females, ref Inoue et al. 2008
  Reported concomitant effects (signs and symptoms): Toxic symptoms occurred
[3]; 500 mg/kg BW (35 g) acute oral, person fourteen, ref Yoshida and Kuroki. 2010 (original data of Koyama et al. 2006)
  Reported concomitant effects (signs and symptoms): Toxic symptoms occurred
[3]; 500 mg/kg BW (35 g) acute oral, person two, ref Yoshida and Kuroki. 2010 (original data of Koyama et al. 2006)
  Reported concomitant effects (signs and symptoms): Toxic symptoms occurred
[3]; 536 mg/kg BW (37.5 g) acute oral, person, ref Yoshida and Kuroki. 2010 (original data of Koyama et al. 2006)
  Reported concomitant effects (signs and symptoms): Toxic symptoms occurred
[3]; 571 mg/kg BW (40 g) acute oral, person, ref Park and Choi. 2017
  Reported concomitant effects (signs and symptoms): Toxic symptoms occurred
[3]; 714 mg/kg BW (50 g) acute oral, person eight, ref Yoshida and Kuroki. 2010 (original data of Koyama et al. 2006)
  Reported concomitant effects (signs and symptoms): Toxic symptoms occurred
[3]; 714 mg/kg BW (50 g) acute oral, person four, ref Yoshida and Kuroki. 2010 (original data of Koyama et al. 2006)
  Reported concomitant effects (signs and symptoms): Toxic symptoms occurred
[3]; 714 mg/kg BW (50 g) acute oral, person nine, ref Yoshida and Kuroki. 2010 (original data of Koyama et al. 2006)
  Reported concomitant effects (signs and symptoms): Toxic symptoms occurred
[3]; 714 mg/kg BW (50 g) acute oral, person one, ref Yoshida and Kuroki. 2010 (original data of Koyama et al. 2006)
  Reported concomitant effects (signs and symptoms): Toxic symptoms occurred
[3]; 714 mg/kg BW (50 g) acute oral, person ten, ref Yoshida and Kuroki. 2010 (original data of Koyama et al. 2006)
  Reported concomitant effects (signs and symptoms): Toxic symptoms occurred
[3]; 714 mg/kg BW (50 g) acute oral, person thirteen, ref Yoshida and Kuroki. 2010 (original data of Koyama et al. 2006)
  Reported concomitant effects (signs and symptoms): Toxic symptoms occurred
[3]; [4]
  Reported concomitant effects (signs and symptoms): toxic symptoms occurred
  Reported erythrocyte AChE activity/inhibition: Significantly decreased
[3]; 1786 mg/kg BW (125.0 ± 35.4 g) acute oral, one male and one female, ref Inoue et al. 2008
  Reported concomitant effects (signs and symptoms): Toxic symptoms occurred
[3]; single oral 0.042 mg/kg BW, 0.042 mg/kg
  reported or expected adverse health outcome: negative
[3]; single oral 0.042 mg/kg BW, listed as Fenitrothion, 0.042 mg/kg
  reported or expected adverse health outcome: No
[3]; single oral 0.06 mg/kg BW, 0.06 mg/kg
  reported or expected adverse health outcome: negative
[3]; single oral 0.06 mg/kg BW, listed as Fenitrothion, 0.06 mg/kg
  reported or expected adverse health outcome: No
[3]; single oral 0.083 mg/kg BW, 0.083 mg/kg
  reported or expected adverse health outcome: negative
[3]; single oral 0.083 mg/kg BW, listed as Fenitrothion, 0.083 mg/kg
  reported or expected adverse health outcome: No
[3]; single oral 0.09 mg/kg BW, 0.09 mg/kg
  reported or expected adverse health outcome: negative
[3]; single oral 0.09 mg/kg BW, listed as Fenitrothion, 0.09 mg/kg
  reported or expected adverse health outcome: No
[3]; single oral 0.17 mg/kg BW, 0.17 mg/kg
  reported or expected adverse health outcome: negative
[3]; single oral 0.17 mg/kg BW, listed as Fenitrothion, 0.17 mg/kg
  reported or expected adverse health outcome: No
[3]; single oral 0.18 mg/kg BW, 0.18 mg/kg
  reported or expected adverse health outcome: negative
[3]; single oral 0.18 mg/kg BW, listed as Fenitrothion, 0.18 mg/kg
  reported or expected adverse health outcome: No
[3]; single oral 0.25 mg/kg BW, 0.25 mg/kg
  reported or expected adverse health outcome: negative
[3]; single oral 0.25 mg/kg BW, listed as Fenitrothion, 0.25 mg/kg
  reported or expected adverse health outcome: No
[3]; single oral 0.33 mg/kg BW, 0.33 mg/kg
  reported or expected adverse health outcome: negative
[3]; single oral 0.33 mg/kg BW, listed as Fenitrothion, 0.33 mg/kg
  reported or expected adverse health outcome: No
[3]; single oral 0.36 mg/kg BW, 0.36 mg/kg
  reported or expected adverse health outcome: negative
[3]; single oral 0.36 mg/kg BW, listed as Fenitrothion, 0.36 mg/kg
  reported or expected adverse health outcome: No
[3]; single oral 36 mg/kg BW, 36 mg/kg
  reported or expected adverse health outcome: positive
[3]; single oral 36 mg/kg BW, listed as Fenitrothion, 36 mg/kg
  reported or expected adverse health outcome: Yes
[3]; single oral 71 mg/kg BW, 71 mg/kg
  reported or expected adverse health outcome: positive
[3]; single oral 71 mg/kg BW, listed as Fenitrothion, 71 mg/kg
  reported or expected adverse health outcome: Yes
[3]; single oral 143 mg/kg BW, 143 mg/kg
  reported or expected adverse health outcome: positive
[3]; single oral 143 mg/kg BW, listed as Fenitrothion, 143 mg/kg
  reported or expected adverse health outcome: Yes
[3]; single oral 214 mg/kg BW, 214 mg/kg
  reported or expected adverse health outcome: positive
[3]; single oral 214 mg/kg BW, listed as Fenitrothion, 214 mg/kg
  reported or expected adverse health outcome: Yes
[3]; single oral 357 mg/kg BW, 357 mg/kg
  reported or expected adverse health outcome: positive
[3]; single oral 357 mg/kg BW, listed as Fenitrothion, 357 mg/kg
  reported or expected adverse health outcome: Yes
[3]; single oral 429 mg/kg BW, 429 mg/kg
  reported or expected adverse health outcome: positive
[3]; single oral 429 mg/kg BW, listed as Fenitrothion, 429 mg/kg
  reported or expected adverse health outcome: Yes
[3]; single oral 500 mg/kg BW, 500 mg/kg
  reported or expected adverse health outcome: positive
[3]; single oral 500 mg/kg BW, listed as Fenitrothion, 500 mg/kg
  reported or expected adverse health outcome: Yes
[3]; single oral 536 mg/kg BW, 536 mg/kg
  reported or expected adverse health outcome: positive
[3]; single oral 536 mg/kg BW, listed as Fenitrothion, 536 mg/kg
  reported or expected adverse health outcome: Yes
[3]; single oral 571 mg/kg BW, 571 mg/kg
  reported or expected adverse health outcome: positive
[3]; single oral 571 mg/kg BW, listed as Fenitrothion, 571 mg/kg
  reported or expected adverse health outcome: Yes
[3]; single oral 1714 mg/kg BW, 1714 mg/kg
  reported or expected adverse health outcome: positive
[3]; single oral 1714 mg/kg BW, listed as Fenitrothion, 1714 mg/kg
  reported or expected adverse health outcome: Yes
[3]; single oral 1786 mg/kg BW, 1786 mg/kg
  reported or expected adverse health outcome: positive
[3]; single oral 1786 mg/kg BW, listed as Fenitrothion, 1786 mg/kg
  reported or expected adverse health outcome: Yes
